Laboratory results as given in paper PMC5333395, “Assessing histone demethylase inhibitors in cells: lessons learned” (Epigenetics & Chromatin, 2017).

Key:
[1] = target: T1, KDM3A (Homo sapiens, UniProt Q9Y4C1); design: method as in PMID 26741168; conditions: AlphaScreen; in vitro biochemical profiling previously reported; cited from earlier work
T1 sequence (Q9Y4C1 1-1321): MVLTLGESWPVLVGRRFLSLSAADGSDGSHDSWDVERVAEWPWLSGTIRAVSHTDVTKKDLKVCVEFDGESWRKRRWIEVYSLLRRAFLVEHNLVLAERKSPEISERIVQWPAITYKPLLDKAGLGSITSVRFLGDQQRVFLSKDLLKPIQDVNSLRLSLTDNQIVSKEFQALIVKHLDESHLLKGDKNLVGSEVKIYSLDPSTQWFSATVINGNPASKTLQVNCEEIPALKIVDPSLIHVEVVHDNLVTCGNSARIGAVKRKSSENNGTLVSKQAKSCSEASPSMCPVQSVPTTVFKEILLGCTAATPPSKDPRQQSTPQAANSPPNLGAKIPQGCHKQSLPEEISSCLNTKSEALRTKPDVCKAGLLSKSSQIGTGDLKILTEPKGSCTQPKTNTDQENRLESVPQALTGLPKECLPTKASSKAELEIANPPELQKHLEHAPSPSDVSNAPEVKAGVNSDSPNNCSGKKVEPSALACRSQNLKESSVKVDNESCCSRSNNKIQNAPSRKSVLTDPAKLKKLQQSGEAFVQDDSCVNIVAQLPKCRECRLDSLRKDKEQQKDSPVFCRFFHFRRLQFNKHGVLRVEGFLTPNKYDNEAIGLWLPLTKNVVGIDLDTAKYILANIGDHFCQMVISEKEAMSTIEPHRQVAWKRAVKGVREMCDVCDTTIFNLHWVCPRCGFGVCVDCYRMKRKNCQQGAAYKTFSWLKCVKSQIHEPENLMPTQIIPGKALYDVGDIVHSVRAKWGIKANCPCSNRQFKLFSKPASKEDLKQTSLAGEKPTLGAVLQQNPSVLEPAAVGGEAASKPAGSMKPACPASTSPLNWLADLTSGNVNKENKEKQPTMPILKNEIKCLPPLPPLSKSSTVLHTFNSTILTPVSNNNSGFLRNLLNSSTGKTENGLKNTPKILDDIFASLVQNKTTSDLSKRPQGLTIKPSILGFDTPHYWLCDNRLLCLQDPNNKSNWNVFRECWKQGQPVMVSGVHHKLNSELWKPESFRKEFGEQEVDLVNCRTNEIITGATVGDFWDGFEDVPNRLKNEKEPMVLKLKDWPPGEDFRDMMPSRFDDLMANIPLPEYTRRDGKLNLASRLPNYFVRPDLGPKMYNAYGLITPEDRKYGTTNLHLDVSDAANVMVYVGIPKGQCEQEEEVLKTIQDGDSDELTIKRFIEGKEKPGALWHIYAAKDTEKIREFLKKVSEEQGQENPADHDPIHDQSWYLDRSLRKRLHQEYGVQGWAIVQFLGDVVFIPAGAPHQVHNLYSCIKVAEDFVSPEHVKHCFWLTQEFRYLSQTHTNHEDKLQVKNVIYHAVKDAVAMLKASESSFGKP

[2] = target: KDM5B (Homo sapiens, UniProt Q9UGL1); design: method as in PMID 26741168; conditions: AlphaScreen; in vitro biochemical profiling previously reported; cited from earlier work
[3] = target: KDM5D (Homo sapiens, UniProt Q9BY66); assay: AlphaScreen in vitro demethylase assay; format: biochemical; conditions: IC50 ± SD (number of replicates)
Method: IC50 values were determined as previously described. The following amendments were made to the protocol for carrying out 2-OG competition assays.

Chain of KDM5D (Q9BY66 whole entry): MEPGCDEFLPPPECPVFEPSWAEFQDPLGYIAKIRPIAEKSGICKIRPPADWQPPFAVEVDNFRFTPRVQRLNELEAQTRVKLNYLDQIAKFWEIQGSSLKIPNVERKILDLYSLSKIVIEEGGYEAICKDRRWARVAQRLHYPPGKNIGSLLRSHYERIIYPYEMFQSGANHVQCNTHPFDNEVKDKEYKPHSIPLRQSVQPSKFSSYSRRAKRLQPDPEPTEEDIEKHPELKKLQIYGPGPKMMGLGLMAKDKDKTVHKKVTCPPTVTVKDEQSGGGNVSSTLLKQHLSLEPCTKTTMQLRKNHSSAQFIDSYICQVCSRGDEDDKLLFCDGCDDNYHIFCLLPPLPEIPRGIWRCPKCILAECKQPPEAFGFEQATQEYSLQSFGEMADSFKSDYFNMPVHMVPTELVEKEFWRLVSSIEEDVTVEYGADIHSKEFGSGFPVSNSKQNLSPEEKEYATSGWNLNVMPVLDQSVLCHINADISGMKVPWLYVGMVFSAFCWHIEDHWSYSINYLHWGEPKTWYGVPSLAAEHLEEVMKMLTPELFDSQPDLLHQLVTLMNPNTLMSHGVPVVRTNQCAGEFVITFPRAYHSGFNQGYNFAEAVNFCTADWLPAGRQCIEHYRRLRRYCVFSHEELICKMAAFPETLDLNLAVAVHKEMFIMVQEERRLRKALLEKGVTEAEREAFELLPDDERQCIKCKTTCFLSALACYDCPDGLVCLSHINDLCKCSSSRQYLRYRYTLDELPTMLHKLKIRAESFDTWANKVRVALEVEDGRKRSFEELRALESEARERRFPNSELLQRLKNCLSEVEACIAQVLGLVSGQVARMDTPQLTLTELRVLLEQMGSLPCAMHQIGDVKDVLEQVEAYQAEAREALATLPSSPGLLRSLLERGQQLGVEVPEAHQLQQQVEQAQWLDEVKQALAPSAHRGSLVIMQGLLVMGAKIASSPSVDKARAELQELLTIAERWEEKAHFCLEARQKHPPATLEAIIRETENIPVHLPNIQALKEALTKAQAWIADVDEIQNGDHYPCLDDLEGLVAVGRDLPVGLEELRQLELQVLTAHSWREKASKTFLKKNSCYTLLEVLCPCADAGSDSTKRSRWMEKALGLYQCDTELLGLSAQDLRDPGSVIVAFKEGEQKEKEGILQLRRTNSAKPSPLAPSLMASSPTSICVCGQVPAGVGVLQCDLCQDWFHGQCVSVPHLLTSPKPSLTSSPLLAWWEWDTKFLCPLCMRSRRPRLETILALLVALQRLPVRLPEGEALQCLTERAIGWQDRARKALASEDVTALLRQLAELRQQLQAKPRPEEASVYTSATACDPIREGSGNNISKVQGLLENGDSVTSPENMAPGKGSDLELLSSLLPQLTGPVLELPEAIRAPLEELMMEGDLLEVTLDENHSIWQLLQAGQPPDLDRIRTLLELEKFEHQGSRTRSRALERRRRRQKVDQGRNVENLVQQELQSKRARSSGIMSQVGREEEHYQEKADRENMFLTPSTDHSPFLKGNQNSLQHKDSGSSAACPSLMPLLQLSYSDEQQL
Chain of KDM5B (Q9UGL1 whole entry): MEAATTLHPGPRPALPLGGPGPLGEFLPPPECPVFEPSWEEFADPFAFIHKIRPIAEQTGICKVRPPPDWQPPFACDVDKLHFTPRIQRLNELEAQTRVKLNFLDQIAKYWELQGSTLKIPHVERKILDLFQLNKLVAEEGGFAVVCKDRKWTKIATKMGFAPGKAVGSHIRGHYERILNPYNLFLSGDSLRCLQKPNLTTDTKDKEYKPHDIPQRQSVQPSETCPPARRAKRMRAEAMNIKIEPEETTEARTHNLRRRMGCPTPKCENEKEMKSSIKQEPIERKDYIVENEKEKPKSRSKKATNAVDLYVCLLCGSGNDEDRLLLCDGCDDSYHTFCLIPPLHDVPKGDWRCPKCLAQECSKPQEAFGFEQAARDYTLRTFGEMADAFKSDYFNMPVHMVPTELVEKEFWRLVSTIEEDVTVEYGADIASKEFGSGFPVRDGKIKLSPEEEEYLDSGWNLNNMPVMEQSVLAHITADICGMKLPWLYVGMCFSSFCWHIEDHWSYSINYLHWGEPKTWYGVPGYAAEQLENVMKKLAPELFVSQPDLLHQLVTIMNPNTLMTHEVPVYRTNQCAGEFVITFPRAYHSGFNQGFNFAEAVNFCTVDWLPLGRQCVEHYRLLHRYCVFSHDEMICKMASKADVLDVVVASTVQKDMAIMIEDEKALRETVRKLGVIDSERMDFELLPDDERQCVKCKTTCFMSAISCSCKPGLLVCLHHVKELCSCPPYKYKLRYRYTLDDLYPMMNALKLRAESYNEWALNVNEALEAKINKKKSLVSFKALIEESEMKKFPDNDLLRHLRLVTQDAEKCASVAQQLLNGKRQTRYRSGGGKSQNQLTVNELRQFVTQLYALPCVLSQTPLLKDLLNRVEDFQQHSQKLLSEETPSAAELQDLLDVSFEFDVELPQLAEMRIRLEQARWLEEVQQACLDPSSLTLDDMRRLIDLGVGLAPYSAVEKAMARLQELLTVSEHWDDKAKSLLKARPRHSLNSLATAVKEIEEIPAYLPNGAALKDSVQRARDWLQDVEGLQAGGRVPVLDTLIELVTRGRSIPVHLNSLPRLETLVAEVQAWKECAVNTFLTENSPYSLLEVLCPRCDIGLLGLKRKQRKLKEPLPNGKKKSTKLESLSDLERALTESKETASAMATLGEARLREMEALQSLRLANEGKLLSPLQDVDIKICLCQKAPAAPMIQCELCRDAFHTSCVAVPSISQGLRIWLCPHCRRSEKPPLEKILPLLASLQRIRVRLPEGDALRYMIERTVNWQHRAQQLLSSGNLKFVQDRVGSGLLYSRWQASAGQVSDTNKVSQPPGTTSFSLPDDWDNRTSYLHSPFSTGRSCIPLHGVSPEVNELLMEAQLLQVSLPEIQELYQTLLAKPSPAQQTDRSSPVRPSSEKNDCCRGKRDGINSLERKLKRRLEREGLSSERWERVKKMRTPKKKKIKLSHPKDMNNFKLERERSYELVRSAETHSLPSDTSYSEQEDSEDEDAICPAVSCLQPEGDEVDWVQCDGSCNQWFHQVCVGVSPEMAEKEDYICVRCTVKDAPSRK

Compound	IC50 [1] [µM]	IC50 [2] [µM]	IC50 [3] [µM]
Clc1ccc(N/N=C(\c2ccccc2)c2ccccn2)nc1 [JIB-04 E]	0.65 ± 0.05	0.561	–
CCN(CCN(C)C)C(=O)CNCc1cc(C(=O)O)ccn1 [KDOAM-20]	–	–	0.019 ± 0.004
